The text below walks through data of PubChem BioAssay AID256 (DTP/NCI, 2004).

In this assay the test system is CD2F1 mice, L1210 leukemia ip, survival T/C. Put plainly: NCI In Vivo Anticancer Drug Screen. Data for tumor model L1210 Leukemia (intraperitoneal) in CD2F1 (CDF1) mice. To be noted: higher = longer survival. In short, it runs like this: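 Transplantable tumor in mice; compound-treated vs vehicle-treated groups. Read-out = treated/control ratio of the measured endpoint.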

Where [1] appears, read: endpoint: mean survival time, dose: 100.0 mg/kg/injection, schedule: Q04DX003 (ip), vehicle: saline with Tween-80.
Where [2] appears, read: endpoint: mean survival time, dose: 200.0 mg/kg/injection, schedule: Q04DX003 (ip), vehicle: saline with Tween-80.
Setting [3] is: endpoint: mean survival time, dose: 400.0 mg/kg/injection, schedule: Q04DX003 (ip), vehicle: saline with Tween-80.
The mark [4] stands for this setting: endpoint: mean survival time, dose: 100.0 mg/kg/injection, schedule: Q04DX002 (ip), vehicle: saline with Tween-80.
Setting [5] is: endpoint: mean survival time, dose: 50.0 mg/kg/injection, schedule: Q01DX009 (ip), vehicle: saline with Tween-80.
[6] abbreviates: endpoint: mean survival time, dose: 100.0 mg/kg/injection, schedule: Q01DX009 (ip), vehicle: saline with Tween-80.
The mark [7] stands for this setting: endpoint: mean survival time, dose: 100.0 mg/kg/injection, schedule: Q01DX001 (ip), vehicle: saline.
The mark [8] stands for this setting: endpoint: mean survival time, dose: 200.0 mg/kg/injection, schedule: Q01DX001 (ip), vehicle: saline.
[9] abbreviates: endpoint: mean survival time, dose: 400.0 mg/kg/injection, schedule: Q01DX001 (ip), vehicle: saline.
The mark [10] stands for this setting: endpoint: mean survival time, dose: 50.0 mg/kg/injection, schedule: Q01DX009 (ip), vehicle: saline.
Setting [11] is: endpoint: mean survival time, dose: 100.0 mg/kg/injection, schedule: Q01DX009 (ip), vehicle: saline.
[12] abbreviates: endpoint: mean survival time, dose: 100.0 mg/kg/injection, schedule: Q04DX003 (ip), vehicle: saline.
The mark [13] stands for this setting: endpoint: mean survival time, dose: 200.0 mg/kg/injection, schedule: Q01DX009 (ip), vehicle: saline.
[14] abbreviates: endpoint: mean survival time, dose: 200.0 mg/kg/injection, schedule: Q04DX003 (ip), vehicle: saline.
[15] abbreviates: endpoint: mean survival time, dose: 200.0 mg/kg/injection, schedule: Q04DX002 (ip), vehicle: saline with Tween-80.
Where [16] appears, read: endpoint: mean survival time, dose: 400.0 mg/kg/injection, schedule: Q04DX002 (ip), vehicle: saline with Tween-80.
[17] abbreviates: endpoint: mean survival time, dose: 200.0 mg/kg/injection, schedule: Q01DX009 (ip), vehicle: saline with Tween-80.
Setting [18] is: endpoint: mean survival time, dose: 400.0 mg/kg/injection, schedule: Q01DX009 (ip), vehicle: saline with Tween-80.
The mark [19] stands for this setting: endpoint: mean survival time, dose: 25.0 mg/kg/injection, schedule: Q01DX009 (ip), vehicle: saline with Tween-80.

Inconclusive results and toxic doses are left out.

Regarding `CCC(C)C(=O)O[C@H]1C(=O)O[C@@H]2C[C@H]3C(C)=CC(=O)[C@@H](O)[C@]3(C)[C@H]3[C@@H](O)[C@H](O)[C@@]4(C)OC[C@]32[C@@H]14` (stereo partly drawn), the T/C by setting is: (endpoint: mean survival time, dose: 2.0 mg/kg/injection, schedule: Q01DX009 (ip), vehicle: saline + alcohol) 104 % of control; (endpoint: mean survival time, dose: 4.0 mg/kg/injection, schedule: Q01DX009 (ip), vehicle: saline + alcohol) 102 % of control.

Take `CC12CCC(C(=O)C1=O)C2(C)C` (stereo not drawn): the T/C was 102 % of control under setting [1], 94 % of control under setting [2] and 102 % of control under setting [3].

On to `Oc1c(F)c(F)c(-c2c(F)ccc(F)c2F)c(F)c1F`, for which the T/C (endpoint: mean survival time, dose: 25.0 mg/kg/injection, schedule: Q01DX001 (ip), vehicle: saline with Tween-80) is 92 % of control; the T/C (endpoint: mean survival time, dose: 50.0 mg/kg/injection, schedule: Q01DX001 (ip), vehicle: saline with Tween-80) was 102 % of control; the T/C (endpoint: mean survival time, dose: 100.0 mg/kg/injection, schedule: Q01DX001 (ip), vehicle: saline with Tween-80) was 94 % of control.

Turning to `O=[P+](O)O[P+](=O)O.O=[P+](O)O[P+](=O)O.O=[P+](O)O[P+](=O)O.O=[P+](O)O[P+](=O)O.[Pt].[Pt]`, the T/C runs as follows: (endpoint: median survival time, dose: 3.12 mg/kg/injection, schedule: Q04DX003 (ip), vehicle: saline) 98 % of control; (endpoint: median survival time, dose: 6.25 mg/kg/injection, schedule: Q04DX003 (ip), vehicle: saline) 98 % of control; (endpoint: median survival time, dose: 12.5 mg/kg/injection, schedule: Q04DX003 (ip), vehicle: saline) 96 % of control; (endpoint: median survival time, dose: 25.0 mg/kg/injection, schedule: Q04DX003 (ip), vehicle: saline) 98 % of control; (endpoint: median survival time, dose: 50.0 mg/kg/injection, schedule: Q04DX003 (ip), vehicle: saline) 105 % of control.

With `CCN(C(=O)Nc1ccccc1OC)c1ccccc1`, the T/C is, setting by setting: under setting [1], 98 % of control; under setting [2], 98 % of control; under setting [3], 93 % of control.

As for `CCCCCCCCCCCc1nc(N)n[nH]1`, the T/C under setting [1] was 98 % of control, the T/C under setting [2] is 102 % of control and the T/C under setting [3] is 102 % of control.

On to `Cc1nc(N)c2ncn(C3OC(CO)C(O)C3O)c2n1` (stereo not drawn), for which the T/C under setting [4] is 115 % of control.

Consider `CCC(=O)Nc1ncc([N+](=O)[O-])s1`, for which the T/C was 94 % of control under setting [5] and 100 % of control under setting [6].

With `COC1=CC=C2[C@@H]3Cc4ccc(OC)c5c4[C@]2(CCN3CCO)C1O5` (stereo partly drawn), the T/C runs as follows: (endpoint: mean survival time, dose: 25.0 mg/kg/injection, schedule: Q04DX003 (ip), vehicle: DMSO) 94 % of control; (endpoint: mean survival time, dose: 50.0 mg/kg/injection, schedule: Q04DX003 (ip), vehicle: DMSO) 96 % of control; (endpoint: mean survival time, dose: 100.0 mg/kg/injection, schedule: Q04DX003 (ip), vehicle: DMSO) 94 % of control; (endpoint: mean survival time, dose: 200.0 mg/kg/injection, schedule: Q04DX003 (ip), vehicle: DMSO) 91 % of control; (endpoint: mean survival time, dose: 400.0 mg/kg/injection, schedule: Q04DX003 (ip), vehicle: DMSO) 105 % of control.

For the compound `CC(=O)OCC#CCOC(C)=O`, the T/C under setting [5] is 93 % of control.

For the compound `O=C1C(c2ccccc2)CN1C1CCCCC1` (stereo not drawn), the T/C is 104 % of control under setting [7], 101 % of control under setting [8] and 87 % of control under setting [9].

Take `O=C(O)CC(C(=O)O)=C(c1ccccc1)c1ccccc1`: the T/C under setting [7] was 98 % of control, the T/C under setting [8] is 95 % of control and the T/C under setting [9] was 101 % of control.

On to `CCCNCCN(CC)CC`, for which the T/C reads like this: under setting [10], 96 % of control; under setting [11], 93 % of control; under setting [12], 100 % of control; under setting [13], 96 % of control; under setting [14], 96 % of control.

Take `CN(C)C(=S)Oc1c(S(=O)(=O)F)ccc(Cl)c1Cl`: the T/C runs as follows: under setting [4], 91 % of control; under setting [15], 91 % of control; under setting [16], 97 % of control.

As to `Nc1cc(Cl)cc2c1-c1ccc(Cl)cc1C2Br` (stereo not drawn), the T/C is, setting by setting: (endpoint: mean survival time, dose: 50.0 mg/kg/injection, schedule: Q01DX001 (ip), vehicle: carboxymethylcellulose (CMC)) 102 % of control; (endpoint: mean survival time, dose: 100.0 mg/kg/injection, schedule: Q01DX001 (ip), vehicle: carboxymethylcellulose (CMC)) 108 % of control; (endpoint: mean survival time, dose: 200.0 mg/kg/injection, schedule: Q01DX001 (ip), vehicle: carboxymethylcellulose (CMC)) 108 % of control; (endpoint: mean survival time, dose: 400.0 mg/kg/injection, schedule: Q01DX001 (ip), vehicle: carboxymethylcellulose (CMC)) 108 % of control.

As for `CNC(=O)Nc1nncs1`, the T/C under setting [6] was 97 % of control, the T/C under setting [17] is 104 % of control and the T/C under setting [18] is 92 % of control.

For `CC(=O)CC(=O)N1CCN(C(=O)CC(C)=O)CC1`, the T/C under setting [12] was 98 % of control; the T/C under setting [14] is 96 % of control; the T/C (endpoint: mean survival time, dose: 400.0 mg/kg/injection, schedule: Q04DX003 (ip), vehicle: saline) was 98 % of control.

Regarding `Cc1ccc(C(=O)c2ccc([N+](=O)[O-])cc2)cc1`, the T/C under setting [1] is 94 % of control and the T/C under setting [2] is 94 % of control.

For the compound `O=C1C=C(C2OC(CO)C(O)C2O)C(=O)N1` (stereo not drawn), the T/C (endpoint: mean survival time, dose: 5.0 mg/kg/injection, schedule: Q01DX009 (ip), vehicle: saline with Tween-80) is 106 % of control; the T/C (endpoint: mean survival time, dose: 10.0 mg/kg/injection, schedule: Q01DX009 (ip), vehicle: saline with Tween-80) was 111 % of control; the T/C (endpoint: mean survival time, dose: 20.0 mg/kg/injection, schedule: Q01DX009 (ip), vehicle: saline with Tween-80) is 111 % of control.

Take `CC(=O)Nc1ccc(/C=C2\N=C(c3cccc([N+](=O)[O-])c3)OC2=O)cc1`: the T/C reads like this: under setting [4], 100 % of control; under setting [15], 100 % of control; under setting [16], 91 % of control.

Regarding `NC(CS(=O)c1ccc(Cl)cc1)C(=O)O` (stereo not drawn), the T/C reads like this: (endpoint: mean survival time, dose: 6.25 mg/kg/injection, schedule: Q01DX009 (ip), vehicle: saline with Tween-80) 90 % of control; (endpoint: mean survival time, dose: 12.5 mg/kg/injection, schedule: Q01DX009 (ip), vehicle: saline with Tween-80) 94 % of control; under setting [19], 96 % of control.

As to `O=C(c1ccccc1)C(Cl)Cl`, the T/C is, setting by setting: under setting [10], 95 % of control; under setting [6], 108 % of control; under setting [11], 95 % of control; under setting [13], 106 % of control; under setting [18], 86 % of control.

In the case of `COc1cc(NS(C)(=O)=O)ccc1Nc1c2ccccc2nc2cc(C(F)(F)F)c(N)cc12`, the T/C is 154 % of control (endpoint: mean survival time, dose: 200.0 mg/kg/injection, schedule: Q01DX001 (ip), vehicle: Klucel (hydroxypropylcellulose) (HPC)) and 265 % of control (endpoint: mean survival time, dose: 400.0 mg/kg/injection, schedule: Q01DX001 (ip), vehicle: Klucel (hydroxypropylcellulose) (HPC)).

In the case of `Cc1cc([N+](=O)[O-])ccc1S(=O)(=O)F`, the T/C (endpoint: mean survival time, dose: 25.0 mg/kg/injection, schedule: Q04DX003 (ip), vehicle: saline with Tween-80) was 95 % of control; the T/C (endpoint: mean survival time, dose: 50.0 mg/kg/injection, schedule: Q04DX003 (ip), vehicle: saline with Tween-80) is 98 % of control; the T/C under setting [1] is 98 % of control.

Turning to `O=C1c2ccccc2C(=O)N1CNCCCNCN1C(=O)c2ccccc2C1=O`, the T/C runs as follows: under setting [6], 98 % of control; under setting [17], 98 % of control; under setting [18], 96 % of control.

Turning to `CS(=O)(=O)OCCN(CCOS(C)(=O)=O)c1cccc(C(F)(F)F)c1`, the T/C is 113 % of control (endpoint: mean survival time, dose: 6.25 mg/kg/injection, schedule: Q01DX015 (ip), vehicle: saline); 119 % of control (endpoint: mean survival time, dose: 12.5 mg/kg/injection, schedule: Q01DX015 (ip), vehicle: saline); 107 % of control (endpoint: mean survival time, dose: 25.0 mg/kg/injection, schedule: Q01DX015 (ip), vehicle: saline); 98 % of control (endpoint: mean survival time, dose: 50.0 mg/kg/injection, schedule: Q01DX015 (ip), vehicle: saline).

As for `CC(=O)c1ccccc1C(C)C`, the T/C by setting is: under setting [19], 91 % of control; under setting [5], 96 % of control; under setting [6], 94 % of control.
